Data reported in patent publication US20250338846A1, “COMPOSITIONS HAVING PESTICIDAL UTILITY AND PROCESSES RELATED THERETO” (CORTEVA AGRISCIENCE, LLC, priority 2022, published 2025).

Columns and labels:
Format in all cases: in vivo
[1] = tested on: Sweet Potato Whitefly (Bemisia tabaci, BEMITA); test: Bioassay 2: Sweet Potato Whitefly, spray on cotton seedlings at crawler emergence, nymphs counted 7-9 days after treatment
Experimental: (§1) Stock solutions were prepared with Formula One as well as for each of the active ingredients individually. Test solutions were prepared from the stock solutions. Test solutions were prepared containing Formula One, the individual active ingredients, and mixtures of Formula One with each of the active ingredients. The test solutions for Formula One and the individual active ingredients were prepared by adding 500 μL of stock solution to a 25 mL glass vial, then adding 500 μL of acetone, followed by the addition of 9 mL water with 0.025% Tween®) 20 to create a 0.001% (w/v) solution. The test solutions containing mixtures of Formula One and the individual active ingredients were prepared by adding 500 μL of the active ingredient stock solution to a 25 mL glass vial, followed by 500 μL of the Formula One stock solution, then by the addition of 9 mL water with 0.025% Tween®) 20 to create a test solution containing 0.001% (w/v) Formula One and 0.001% (w/v) of the active ingredient. Each test solution was serially diluted to create desired doses of test solutions (0.001% (w/v), 0.0001% (w/v), 0.00001% (w/v), 0.000001% (w/v), 0.0000001% (w/v), and 0.00000001% (w/v)).
(§2) The test solutions were tested against SPW using the following procedure: Cotton seedlings grown in 3-inch pots, pruned so that only one true leaf remained, were used as test substrate. Adult B. tabaci were allowed to colonize the cotton plants and lay eggs for 24 hours after which all adults were removed from the plants using compressed air. Plants were monitored for egg development and, when crawler emergence was underway (>25% emergence based on visual examination using a microscope), the plants were sprayed using the test solutions and methods described above for green peach aphids (GPA). Treated plants were held in a holding room at approximately 25° C. and ambient relative humidity (RH) prior to grading. Evaluation was conducted by counting the number of developed 2-3 instar nymphs per plant under a microscope 7-9 days after treatment. Percent control was measured using Abbott's correction formula (W. S. Abbott, J. Econ. Entomol. 18 (1925), pp. 265-267) as follows:
where X=No. of live nymphs on solvent check plants and Y=No. of live nymphs on treated plants. In Table B2 the “Expected % Control” was calculated using the method described in Colby S. R., Weeds, 1967, 15, 20-22. Bioassay 3: Western Flower Thrips (Frankliniella occidentalis, FRANOC) (“WFT”).

[2] = tested on: Diamondback Moth (Plutella xylostella, PLUTMA); test: Bioassay 6: Diamondback Moth, artificial lepidopteran diet, live larvae after 5 days; details: DBM; AI alone 0.04 % w/v
Experimental: where X=No. of live nymphs on solvent check and Y=No. of live nymphs on treated bean segments. In Table B5 the “Expected % Control” was calculated using the method described in Colby S. R., Weeds, 1967, 15, 20-22. Bioassay 6: Beet Armyworm (Spodoptera exigua, LAPHEG) (BAW), and Diamondback Moth (Plutella xylostella, PLUTMA) (DBM).
(§3) Stock solutions were prepared with Formula One as well as for each of the active ingredients individually. Test solutions were prepared from the stock solutions. Test solutions were prepared containing Formula One, the individual active ingredients, and mixtures of Formula One with each of the active ingredients. The test solution for Formula One was prepared by adding 500 μL of the stock solution to a 25 mL glass vial, then adding 500 μL of a 9:1 mixture of acetone: water. The individual active ingredients were prepared by adding 500 μL of stock solution to a 25 mL glass vial, then adding 500 μL of a 9:1 mixture of acetone: water. The test solutions containing mixtures of Formula One and the individual active ingredients were prepared by adding 500 μL of the active ingredient stock solution to a 25 mL glass vial, followed by 500 μL of the Formula One stock solution, creating a test solution containing 4000 ppm Formula One and 0.4% (w/v) of the active ingredient. Each test solution was serially diluted to create desired doses of test solutions (0.4% (w/v), 0.04% (w/v), 0.004% (w/v), 0.0004% (w/v), 0.00004% (w/v), and 0.000004% (w/v)). In test solutions containing mixtures of Formula One and the active ingredients, the active ingredients were diluted as described above, but the Concentration of Formula One was held constant (0.4% (w/v)). The highest dose test solution (0.4% (w/v)) was discarded, leaving 5 test solution concentrations used in the test.
The test solutions were tested against BAW and DBM using the following procedure: An artificial lepidopteran diet (Multispecies Lepidopteran Diet, Southland Products) was distributed in 128-cell bioassay trays (Frontier Agricultural Sciences™). 50 μL of test solution was pipetted into a cell in the bioassay tray. (The test solution doses of 0.04% (w/v), 0.004% (w/v), 0.0004% (w/v), 0.00004% (w/v), and 0.000004% (w/v) translated to concentrations of 5, 0.5, 0.05, 0.005, and 0.0005 ug/cm^2 on the diet, respectively.) A reference treatment (solvent check) was treated with the diluent only. […] After 5 days, the number of live larvae were recorded from each cell and percent control was measured using Abbott's correction formula (W. S. Abbott, J. Econ. Entomol. 18 (1925), pp. 265-267) as follows:
where X=No. of live larvae on solvent check and Y=No. of live larvae on treated diet. In Table B6 the “Expected % Control” was calculated using the method described in Colby S. R., Weeds, 1967, 15, 20-22. […]

[3] = tested on: Cotton Aphid (Aphis gossypii, APHIGO); test: Bioassay 7: Cotton Aphid, foliar spray on infested cotton seedlings, live aphids counted three days after treatment
Experimental: where X=No. of live larvae on solvent check and Y=No. of live larvae on treated diet. In Table B6 the “Expected % Control” was calculated using the method described in Colby S. R., Weeds, 1967, 15, 20-22. Bioassay 7: Cotton Aphid (Aphis gossypii, APHIGO) (“CA”).
Stock solutions of Formula One and one or more of the active ingredients were prepared at concentrations of 1 mg/mL using a 1:1 mixture of acetone: methanol as a diluent. The stock solutions were prepared with Formula One as well as for each of the active ingredients individually. Test solutions were prepared from the stock solutions. Test solutions were prepared containing Formula One, the individual active ingredients, and mixtures of Formula One with each of the active ingredients. The test solutions for Formula One and the individual active ingredients were prepared by adding 1.5 mL of stock solution to a 30 mL glass vial, then adding 1.5 mL of 1:1 acetone: methanol solvent, followed by the addition of 27 mL water with 0.025% Tween® 20 to create a […]. Each test solution was serially diluted to create desired doses of test solutions ranging from 0.000001 to 0.0025% (w/v). The test solutions were tested against CA using the following procedure: cotton seedlings were grown in 3-inch pots with one true leaf (2-5 cm in diameter) were used as test substrate. The seedlings were infested with 20-50 CA (wingless adult and nymph stages) one day prior to chemical application. Four pots with individual seedlings were used for each treatment. A hand-held aspirator-type sprayer was used for spraying a solution to both sides of […] leaves until runoff. Reference plants (solvent check) were sprayed with the diluent only (0.025% Tween® 20 and 10% acetone:methanol (1:1) in water). Treated plants were held in a holding room for three days at approximately 25° C. and ambient relative humidity (RH about 20% to about 45%) prior to grading. Evaluation was conducted by counting the number of live aphids per plant under a microscope three days after treatment. Percent control was measured using Abbott's correction formula (W. S. Abbott, J. Econ. Entomol. 18 (1925), pp. 265-267) as follows:
(§4) where X=No. of live aphids on solvent check plants and Y=No. of live aphids on treated plants. In Table B1 the “Expected % Control” was calculated using the method described in Colby S. R., Weeds, 1967, 15, 20-22. Bioassay 8: Sweet Potato Whitefly (Bemisia tabaci, BEMITA) (“SPW”).

[4] = tested on: Sweet Potato Whitefly (Bemisia tabaci, BEMITA); test: Bioassay 8: Sweet Potato Whitefly, spray on cotton seedlings at crawler emergence, nymphs counted 7-9 days after treatment; details: AI alone 0.1 (10^-5) Wt %
Experimental: as §4
as §1, with “0.0000001% (w/v), […] and 0.00000001%” for “0.0000001% (w/v), and 0.00000001%”
as §2
(§5) where X=No. of live nymphs on solvent check plants and Y=No. of live nymphs on treated plants. In Table B2 the “Expected % Control” was calculated using the method described in Colby S. R., Weeds, 1967, 15, 20-22. Bioassay 9: Diamondback Moth (Plutella xylostella, PLUTMA) (DBM).

[5] = tested on: Diamondback Moth (Plutella xylostella, PLUTMA); test: Bioassay 9: Diamondback Moth, leaves of track-sprayed cabbage plants, mortality and feeding damage scored
Experimental: as §5, §3
Cabbage seedlings, grown in 3-inch pots with 2-3 small (3-5 centimeter (cm)) true leaves, were used as test substrate. Cabbage plants were sprayed with desired concentrations of Formula One and active ingredients or their mixtures using a track Sprayer. Reference plants (solvent check) were sprayed with diluent only (0.025% Tween® 20 and 10% acetone:methanol (1:1) in water). The sprayed cabbage plants were allowed to dry for 1 hour, after which leaves from each treatment were placed in a cell of a plastic tray. One leaf per cell and 8 replicates for each cell. The tested doses ranged between 0.000001% (w/v) to 0.0002% (w/v). One 2nd instar DBM larvae were placed in each cell of the tray and allowed to feed on the cabbage foliage for […] after which the mortality and feeding damage were scored. Test trays were held at approximately 26° C. and ambient relative humidity (RH) prior to grading. The number of live larvae were recorded from each cell and percent control was measured using Abbott's correction formula (W. S. Abbott, J. Econ. Entomol. 18 (1925), pp. 265-267) as follows:
where X=No. of live larvae on solvent check and Y=No. of live larvae on treated diet. In Table B6 the “Expected % Control” was calculated using the method described in Colby S. R., Weeds, 1967, 15, 20-22.

C[C@]1(COC(=O)C2CC2)[C@@H]2C[C@H](O)[C@@]3(C)Oc4cc(-c5cccnc5)oc(=O)c4[C@H](O)[C@@H]3[C@@]2(C)CC[C@@H]1OC(=O)C1CC1 [Afidopyropen]
Average % Control AI ([1]; AI alone 0.1 (10-5) % w/v): 0%
Average % Control AI ([1]; AI alone 1 (10-5) % w/v): 0%
Average % Control AI [2]: 25%

CC1(C)[C@H](C(=O)O[C@H](C#N)c2cccc(Oc3ccccc3)c2)[C@@H]1C=C(Br)Br [Deltamethrin]
Average % Control A1 ([3]; AI alone 0.78 (10^-5) Wt %): 26.73%
Average % Control A1 ([3]; AI alone 2.5 (10^-5) Wt %): 34.23%
Average % Control A1 ([3]; AI alone 10 (10^-5) Wt %): 34.23%
Average % Control A1 [4]: 35.94%
Average % Control AI ([5]; AI alone 5 (10^-5) Wt %): 30.43%
Average % Control AI ([5]; AI alone 10 (10^-5) Wt %): 15.22%
Average % Control AI ([5]; AI alone 20 (10^-5) Wt %): 30.43%

Cc1cc(C)c(C2=C(OC(=O)CC(C)(C)C)C3(CCCC3)OC2=O)c(C)c1 [Spiromesifen]
Average % Control AI ([1]; AI alone 0.1 (10-5) % w/v): 0%
Average % Control AI [2]: 0%

Tetraniliprole
Average % Control A1 ([3]; AI alone 0.1 (10^-5) Wt %): 44.54%
Average % Control A1 ([3]; AI alone 0.8 (10^-5) Wt %): 7.23%
Average % Control A1 [4]: 40.00%
Average % Control AI ([5]; AI alone 0.1 (10^-5) Wt %): 16.67%
Average % Control AI ([5]; AI alone 1 (10^-5) Wt %): 50.00%
Average % Control AI ([5]; AI alone 5 (10^-5) Wt %): 41.67%
